Source: patent US9394288B2, “Compositions and methods for the treatment of asthma and allergy” (CELLIX BIO PRIVATE LIMITED, priority 2012, dated 2016)

System: TNB/ethanol colitis
Assay: Intracolonic administration in rat model of chronic colitis (TNB/ethanol): macroscopic colonic damage
Assay type: in vivo, Sprague-Dawley rats
Conditions: for macroscopic damage score: after four weeks of treatment, daily enema 50 mg/kg (Formula I (1-1): zileuton equivalent), p=0.026
Procedure: Female virgin Sprague-Dawley rats weighing 200-250 g were used in this study. The animals were maintained in a restricted access room with controlled temperature (23° C.) and light/dark cycle (16 h:8 h). The rats were housed in individual isolated rack mounted wire cages.
TNB/ethanol colitis was induced in 90 rats. Animals were thereafter randomised into four therapeutic groups to receive daily, from day 1 (24 hours after induction of colitis):
Group A (n=30)−0.25 ml of vehicle solution enema (1-5% carboxymethylcellulose in saline serum) (placebo group).
Group B (n=30)−0.25 ml of the vehicle solution enema added with 50 mg/kg of body weight of 5-ASA.
Group C (n=30)−0-25 ml of the vehicle solution enema added with 50 mg/kg of body weight of zileuton.
Group D (n=30)−0-25 ml of the vehicle solution enema added with 50 mg/kg of body weight of Formula I (1-1) equivalent of zileuton.
In addition, sham colitis was induced, by intrarectal administration of 0-25 ml of 0.9°/0 saline, in 10 rats (control group). At day 1 and 3, and at weeks 1, 2, and 4, 10 rats from groups A, B, C and D were randomly selected for the assessment of eicosanoid release in the lumen of the colon by intracolonic dialysis. Rats were anaesthetised with 100 mg of intraperitoneal thiopental and intracolonic dialysis was performed using hydrated Visking seamless cellulose tubing (8/32, 6-3 mm diameter, 7 cm long; Medicell International, London) attached by a 10 cm polyurethane cannula to an external syringe. After inserting the entire cannula into the distal colon, the dialysis bag was filled with 1 ml of dialysis solution, consisting of 0.3°/o bovine serum albumin in a solution of 120 mmol/1 NaCl and 30 mmol/1 KHCO3 adjusted to pH 7.90. One hour later, the fluid was withdrawn and immediately stored at −30 C. The volume of the dialysate recovered at the end of the one hour period was higher than 90%. In the control group (n=10), an intracolonic dialysis was performed in the same way 24 hours after the sham colitis induction. The day after the dialysis was performed at weeks 1, 2, and 4, the same animals were given a distal colectomy under total anaesthesia with 100 mg of intraperitoneal thiopental, to assess colonic inflammation macroscopically and histologically. The excised colon was opened longitudinally, rinsed with normal saline, pinned out on a wax block, and assigned a code number. Mucosal damage was assessed macroscopically as described later. Afterwards, three tissue specimens (2×10 mm) were obtained from the colon. When no severely visible inflammation was present, the specimens were taken from the regions 1 cm, 3 cm, and 8 cm proximal to the anus. When visible lesions were present, the specimens were taken from the affected regions. Tissue samples were fixed in formaldehyde and routinely processed. […]

With CC/C=C\C/C=C\C/C=C\C/C=C\C/C=C\CCCC(=O)NC(=O)N(O)C(C)c1cc2ccccc2s1 (stereo not shown) [Formula I (1-1)] the macroscopic damage score was 4.36 (0.6) and the “all parameters measured by the score, mainly the development of strictures” value (at four weeks, compared with 5-ASA, zileuton and placebo) was “improved”.
In the case of Nc1ccc(O)c(C(=O)O)c1 [5-ASA], the macroscopic damage score is reported as 7.3 (0.7).
With CC(c1cc2ccccc2s1)N(O)C(N)=O (stereo not shown) [zileuton] the macroscopic damage score was 5.6 (0.7).
